Reference: patent publication US20250019387A1 (Frontier Medicines Corporation, priority 0001, published 2025)

Each compound was assayed against KRAS G12C and cRAF (Ras-binding domain) interaction (Homo sapiens (Human), UniProt P01116, C118S/C51S/C80L/G12C) (assay: Inhibition of KRAS G12C and cRAF binding (AlphaScreen)). Details: additional exemplary compounds; KRAS G12C and cRAF binding; read-out: RAF1 RBD IC50.
Method: Compounds were diluted in 100% DMSO and each compound concentration was spotted at 200 nl/well onto low volume, white 384 well plates. […] Plates were incubated for 19-20 hours. A mixture of RBD and the AlphaScreen streptavidin donor and glutathione acceptor beads diluted in 25 mM Hepes, pH 7.4, 150 mM NaCl, 5 mM MgCl2, 0.01% TritonX-100 and 2% DMSO was then added at 10 ul/well and incubated for 60-90 minutes before the samples were read for emission at 570 nm after excitation of the donor beads at 680 nm. All incubations were performed at room temperature. […] IC50s were determined using nonlinear regression fit of [inhibitor]vs. response (4 parameters). […]

Chain of KRAS G12C and cRAF (Ras-binding domain) interaction (P01116 other isoform, or with tags, fused parts or gaps G12C/C51S/C80L/C118S): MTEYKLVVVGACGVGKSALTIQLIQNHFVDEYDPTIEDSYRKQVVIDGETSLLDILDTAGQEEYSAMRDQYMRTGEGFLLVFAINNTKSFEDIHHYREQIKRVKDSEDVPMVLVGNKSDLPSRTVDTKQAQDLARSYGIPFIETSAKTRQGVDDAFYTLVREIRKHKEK

Row | IC50 | SMILES
1 | > 500 nM | CC(C)C/C=C/S(=O)(=O)CCN(C)c1nc(OCC23CCCN2CCC3)nc2c1CCN(c1cccc3cccc(Cl)c13)C2
2 | 100 to 500 nM | C=CC(=O)N1CC(CN(C)c2nc(OCC34CCCN3CCC4)nc3c2CCN(c2cccc4cccc(Cl)c24)C3)C1
3 | > 500 nM | C=CC(=O)CCN(C)c1nc(OC[C@@H]2CCCN2C)nc2c1CCN(c1cccc3ccccc13)C2
4 | 100 to 500 nM | C=CC(=O)N1CC(CN(C)c2nc(OC[C@@]34CCCN3C[C@H](F)C4)nc3c2CCN(c2cccc4cccc(Cl)c24)C3)C1
5 | > 500 nM | C=CC(=O)CCCN(C)c1nc(OC[C@@H]2CCCN2C)nc2c1CCN(c1cccc3ccccc13)C2
6 | > 500 nM | CN(C)C(=O)/C=C/C(=O)N1CC[C@@H](N(C)c2nc(OCC34CCCN3CCC4)nc3c2CCN(c2cccc4cccc(Cl)c24)C3)C1
7 | 100 to 500 nM | C=CC(=O)CCCCN(C)c1nc(OC[C@@H]2CCCN2C)nc2c1CCN(c1cccc3ccccc13)C2
8 | > 500 nM | C=CC(=O)N1C[C@H](Nc2nc(OC[C@@]34CCCN3C[C@H](F)C4)nc3c(F)c(-c4cccc5cccc(Cl)c45)ncc23)[C@@H](C)C1
9 | 100 to 500 nM | CN(C)C/C=C/C(=O)N1CCC(N(C)c2nc(OC[C@@H]3CCCN3C)nc3c2CCN(c2cccc4cccc(Cl)c24)C3)C1 (some centres unmarked)
10 | > 500 nM | Cc1nccc(/C=C/C(=O)N2C[C@H]3C[C@@H]2CN3c2nc(OC[C@@]34CCCN3C[C@H](F)C4)nc3c(F)c(-c4cccc5cccc(Cl)c45)ncc23)n1
11 | > 500 nM | CC(C)c1noc(/C=C/C(=O)N2C[C@H]3C[C@@H]2CN3c2nc(OC[C@@]34CCCN3C[C@H](F)C4)nc3c(F)c(-c4cccc5cccc(Cl)c45)ncc23)n1
12 | > 500 nM | Cc1nccc(/C=C/C(=O)N2CCC[C@H](Nc3nc(OC[C@@]45CCCN4C[C@H](F)C5)nc4c(F)c(-c5cccc6cccc(Cl)c56)ncc34)C2)n1
13 | > 500 nM | CN(CC1(C)CN(C#N)C1)c1nc(OC[C@@H]2CCCN2C)nc2c1CCN(c1cccc3cccc(Cl)c13)C2
14 | > 500 nM | Cc1nccc(/C=C/C(=O)N2CC3(C2)CN(c2nc(OC[C@@]45CCCN4C[C@H](F)C5)nc4c(F)c(-c5cccc6cccc(Cl)c56)ncc24)C3)n1
15 | > 500 nM | Cc1nccc(/C=C/C(=O)N2CC3(CCN(c4nc(OC[C@@]56CCCN5C[C@H](F)C6)nc5c(F)c(-c6cccc7cccc(Cl)c67)ncc45)C3)C2)n1
16 | > 500 nM | C=CC(=O)N1CC[C@@H](N(C)c2nc(OC[C@@]34CCCN3C[C@H](F)C4)nc3c(F)c(-c4cccc5c(Cl)cc(F)cc45)ncc23)C1
17 | > 500 nM | Cc1nccc(/C=C/C(=O)N2CCC(N(C)c3nc(OC[C@@]45CCCN4C[C@H](F)C5)nc4c(F)c(-c5cccc6cccc(Cl)c56)ncc34)CC2)n1
18 | > 500 nM | Cc1nccc(/C=C/C(=O)N2CCC3(C2)CN(c2nc(OC[C@@]45CCCN4C[C@H](F)C5)nc4c(F)c(-c5cccc6cccc(Cl)c56)ncc24)C3)n1
19 | > 500 nM | Cc1nccc(/C=C/C(=O)N2CCC23CN(c2nc(OC[C@@]45CCCN4C[C@H](F)C5)nc4c(F)c(-c5cccc6cccc(Cl)c56)ncc24)C3)n1
20 | > 500 nM | C=CC(=O)N1CC[C@@H](N(CC(F)(F)F)c2nc(OC[C@@]34CCCN3C[C@H](F)C4)nc3c(F)c(-c4cccc5cccc(Cl)c45)ncc23)C1
21 | 100 to 500 nM | C=CS(=O)(=O)CCN(C)c1nc(OC[C@@H]2CCCN2C)nc2c(F)c(-c3cccc4cccc(Cl)c34)ncc12
22 | > 500 nM | Cc1nccc(/C=C/C(=O)N2CCCN(c3nc(OC[C@@]45CCCN4C[C@H](F)C5)nc4c(F)c(-c5cccc6cccc(Cl)c56)ncc34)CC2)n1
23 | > 500 nM | CN1CCC1/C=C/C(=O)N1CCCN(c2nc(OC[C@@]34CCCN3C[C@H](F)C4)nc3c(F)c(-c4cccc5cccc(Cl)c45)ncc23)CC1 (some centres unmarked)

Row | IC50 | SMILES
24 | > 500 nM | O=C(/C=C/CN1CCOCC1)N1CCCN(c2nc(OC[C@@]34CCCN3C[C@H](F)C4)nc3c(F)c(-c4cccc5cccc(Cl)c45)ncc23)CC1
25 | > 500 nM | C=CC(=O)N1C[C@@H](C)[C@@H](N(C)c2nc(OC[C@@]34CCCN3C[C@H](F)C4)nc3c(F)c(-c4cccc5cccc(Cl)c45)ncc23)C1
26 | 100 to 500 nM | C=CS(=O)(=O)[C@H]1C[C@H](N(C)c2nc(OCC34CCCN3CCC4)nc3c2CCN(c2cccc4cccc(Cl)c24)C3)C1
27 | > 500 nM | C=CC(=O)N1CC[C@@H](N(C)c2nc(OC[C@@]34CCCN3C[C@H](F)C4)nc3c(F)c(-c4cccc5c(C)c(F)ccc45)ncc23)C1
28 | > 500 nM | Cc1nccc(/C=C/C(=O)N2C[C@@H]3CN(c4nc(OC[C@@]56CCCN5C[C@H](F)C6)nc5c(F)c(-c6cccc7cccc(Cl)c67)ncc45)C[C@@H]3C2)n1
29 | > 500 nM | O=C(/C=C/CN1CCOCC1)N1CC2(CCN(c3nc(OC[C@@]45CCCN4C[C@H](F)C5)nc4c(F)c(-c5cccc6cccc(Cl)c56)ncc34)C2)C1
30 | > 500 nM | O=C(/C=C/CN1CCOCC1)N1CC2(C1)CN(c1nc(OC[C@@]34CCCN3C[C@H](F)C4)nc3c(F)c(-c4cccc5cccc(Cl)c45)ncc13)C2
31 | 100 to 500 nM | CN(CCC1CN(C#N)C1)c1nc(OCC23CCCN2CCC3)nc2c1CCN(c1cccc3cccc(Cl)c13)C2
32 | > 500 nM | C=CC(=O)N1CC[C@@H](N(C)c2nc(OC[C@@H]3CCCN3C)nc3c(F)c(-c4cccc5cccc(Cl)c45)ncc23)C1
33 | 100 to 500 nM | Cc1ncc(/C=C/C(=O)NCCN(C)c2nc(OCC34CCCN3CCC4)nc3c2CCN(c2cccc4cccc(Cl)c24)C3)o1
34 | > 500 nM | O=C(/C=C/CN1CCOCC1)N1C[C@@H]2C[C@H]1CN2c1nc(OC[C@@]23CCCN2C[C@H](F)C3)nc2c(F)c(-c3cccc4cccc(Cl)c34)ncc12
35 | < 10 nM | CN(C)C/C=C/S(=O)(=O)CCN(C)c1nc(OCC23CCCN2CCC3)nc2c1CCN(c1cccc3cccc(Cl)c13)C2
36 | > 500 nM | O=C(/C=C/CN1CCOCC1)N1C[C@H]2C[C@@H]1CN2c1nc(OC[C@@]23CCCN2C[C@H](F)C3)nc2c(F)c(-c3cccc4cccc(Cl)c34)ncc12
37 | 100 to 500 nM | CN(CCS(=O)(=O)/C=C/CN1CC(F)C1)c1nc(OCC23CCCN2CCC3)nc2c1CCN(c1cccc3cccc(Cl)c13)C2
38 | > 500 nM | CN(CC1CN(C#N)C1)c1nc(OC[C@@H]2CCCN2C)nc2c(F)c(-c3cccc4cccc(Cl)c34)ncc12
39 | > 500 nM | Cc1nccc(/C=C/C(=O)N2CCN(c3nc(OC[C@@]45CCCN4C[C@H](F)C5)nc4c(F)c(-c5cccc6cccc(Cl)c56)ncc34)C3CC32)n1 (some centres unmarked)
40 | < 10 nM | CN(c1nc(OCC23CCCN2CCC3)nc2c(F)c(-c3cccc4cccc(Cl)c34)ncc12)[C@@H]1CCN(C#N)C1
41 | 10 to 100 nM | CN(C)C/C=C/C(=O)N1CC[C@@H](N(C)c2nc(OCC34CCCN3CCC4)nc3c2CCN(c2cccc4cccc(Cl)c24)C3)C1
42 | 10 to 100 nM | C=CC(=O)N1CC[C@@H](N(C)c2nc(OC[C@@]34CCCN3C[C@H](F)C4)nc3c(F)c(-c4cccc5cccc(C(F)(F)F)c45)ncc23)C1
43 | 10 to 100 nM | COC/C=C/C(=O)N1CC[C@@H](N(C)c2nc(OCC34CCCN3CCC4)nc3c(F)c(-c4cccc5cccc(Cl)c45)ncc23)C1
44 | 100 to 500 nM | CN(CC1CN(C#N)C1)c1nc(OCC23CCCN2CCC3)nc2c1CCN(c1cccc3cccc(Cl)c13)C2
45 | < 10 nM | C=CS(=O)(=O)CCN(C)c1nc(OCC23CCCN2CCC3)nc2c(F)c(-c3cccc4cccc(Cl)c34)ncc12
46 | > 500 nM | C#Cc1c(F)ccc2cccc(-c3ncc4c(N(C)[C@@H]5CCN(C(=O)/C=C/c6ccncc6)C5)nc(OC[C@@]56CCCN5C[C@H](F)C6)nc4c3F)c12

Row | SMILES | IC50
47 | Cc1nccc(/C=C/C(=O)N2CC3CC(C2)N3c2nc(OC[C@@]34CCCN3C[C@H](F)C4)nc3c(F)c(-c4cccc5cccc(Cl)c45)ncc23)n1 | > 500 nM
48 | Cc1nccc(/C=C/C(=O)N2C3CC2CN(c2nc(OC[C@@]45CCCN4C[C@H](F)C5)nc4c(F)c(-c5cccc6cccc(Cl)c56)ncc24)C3)n1 | > 500 nM
49 | CC(C)c1noc(/C=C/C(=O)N2CC3CC(C2)N3c2nc(OC[C@@]34CCCN3C[C@H](F)C4)nc3c(F)c(-c4cccc5cccc(Cl)c45)ncc23)n1 | > 500 nM
50 | CC(C)c1noc(/C=C/C(=O)N2C3CC2CN(c2nc(OC[C@@]45CCCN4C[C@H](F)C5)nc4c(F)c(-c5cccc6cccc(Cl)c56)ncc24)C3)n1 | > 500 nM
51 | O=C(/C=C/CN1CCOCC1)N1CC2CC(C1)N2c1nc(OC[C@@]23CCCN2C[C@H](F)C3)nc2c(F)c(-c3cccc4cccc(Cl)c34)ncc12 | > 500 nM
52 | O=C(/C=C/CN1CCOCC1)N1C2CC1CN(c1nc(OC[C@@]34CCCN3C[C@H](F)C4)nc3c(F)c(-c4cccc5cccc(Cl)c45)ncc13)C2 | > 500 nM
53 | O=C(/C=C/CN1CCOCC1)N1C[C@H]2CC[C@@H](C1)N2c1nc(OC[C@@]23CCCN2C[C@H](F)C3)nc2c(F)c(-c3cccc4cccc(Cl)c34)ncc12 | > 500 nM
54 | O=C(/C=C/CN1CCOCC1)N1[C@@H]2CC[C@H]1CN(c1nc(OC[C@@]34CCCN3C[C@H](F)C4)nc3c(F)c(-c4cccc5cccc(Cl)c45)ncc13)C2 | > 500 nM
55 | Cc1nccc(/C=C/C(=O)N2C[C@H]3CC[C@@H](C2)N3c2nc(OC[C@@]34CCCN3C[C@H](F)C4)nc3c(F)c(-c4cccc5cccc(Cl)c45)ncc23)n1 | > 500 nM
56 | Cc1nccc(/C=C/C(=O)N2[C@@H]3CC[C@H]2CN(c2nc(OC[C@@]45CCCN4C[C@H](F)C5)nc4c(F)c(-c5cccc6cccc(Cl)c56)ncc24)C3)n1 | > 500 nM
57 | O=C(/C=C/CN1C2CCC1COC2)N1CCN(c2nc(OC[C@@]34CCCN3C[C@H](F)C4)nc3c(F)c(-c4cccc5cccc(Cl)c45)ncc23)C2CC21 (some centres unmarked) | > 500 nM
58 | O=C(/C=C/CN1[C@@H]2CC[C@H]1COC2)N1CCN(c2nc(OC[C@@]34CCCN3C[C@H](F)C4)nc3c(F)c(-c4cccc5cccc(Cl)c45)ncc23)CC12CC2 | > 500 nM
59 | O=C(/C=C/CN1[C@@H]2CC[C@H]1COC2)N1CCN(c2nc(OC[C@@]34CCCN3C[C@H](F)C4)nc3c(F)c(-c4cccc5cccc(Cl)c45)ncc23)C2(CC2)C1 | > 500 nM
